Here are results for 35 compounds from patent publication US10214531B2 (Institute for Drug Discovery, LLC, priority 2013, dated 2019).

pIC50: −log10 of the molar value. Structures can show the parent of a compound that is named as a salt. Bounds are passed on as bounds.

This assay addresses recombinant human AMCase (Homo sapiens, UniProt Q9BZP6). In words: Human AMCase Activity Assay. The assay is classed as biochemical. As to conditions: recombinant hAMCase, 4-methylumbelliferyl chitobioside substrate, citrate buffer pH 5.2, 37° C., 60 minutes; read-out: Activity (IC50 value key). As to the method: Human AMCase Activity Assay
The assay was run in the 96-well plate format, each reaction in the total volume of 100 μl. 4-Methylumbelliferyl B-D-N,N′ diacetylchitobioside hydrate was used as a substrate for the enzyme. Upon hydrolysis by AMCase, the substrate releases 4-methylumbelliferyl (4MU), when ionized in basic pH, emits fluorescence of 460 nm.
Briefly, 40 μl of a substrate was added to each well, followed by 10 μl of compound dilution and 50 μl of hAMCase recombinant enzyme solution. The reaction was carried out in citrate buffer, pH 5.2, in the dark, at 37° C. for 60 minutes with shaking.

Chain of recombinant human AMCase (Q9BZP6 22-476): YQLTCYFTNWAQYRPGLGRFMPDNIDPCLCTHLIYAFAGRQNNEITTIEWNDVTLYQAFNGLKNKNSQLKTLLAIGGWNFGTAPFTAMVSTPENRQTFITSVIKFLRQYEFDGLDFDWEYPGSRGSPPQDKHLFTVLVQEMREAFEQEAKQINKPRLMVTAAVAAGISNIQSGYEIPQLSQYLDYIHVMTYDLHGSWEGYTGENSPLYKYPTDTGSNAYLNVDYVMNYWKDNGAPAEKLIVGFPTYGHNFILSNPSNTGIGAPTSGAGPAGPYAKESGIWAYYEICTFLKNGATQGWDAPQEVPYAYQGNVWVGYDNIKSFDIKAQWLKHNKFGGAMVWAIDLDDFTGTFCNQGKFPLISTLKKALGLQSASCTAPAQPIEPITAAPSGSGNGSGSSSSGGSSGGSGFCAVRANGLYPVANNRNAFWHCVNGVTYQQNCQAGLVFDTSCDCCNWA

On to `COc1ccc(OCCN2CCN(c3nc(N)n[nH]3)CC2)cc1` [Example 81, 5-(4-(2-(4-methoxyphenoxy)ethyl)piperazin-1-yl)-1H-1,2,4-triazol-3-amine], for which the pIC50 was 4.00 to 5.00.
Turning to `Nc1n[nH]c(N2CCN(CCOc3ccc4[nH]ccc4c3)CC2)n1` [Example 82, 5-(4-(2-((1H-indol-5-yl)oxy)ethyl)piperazin-1-yl)-1H-1,2,4-triazol-3-amine], the negative logarithm of the IC50 (pIC50) was less than 4.00.
The figure for `Nc1n[nH]c(N2CCN(CCOc3ccccc3-c3ccccc3)CC2)n1` [Example 83, 5-(4-(2-([1,1′-biphenyl]-2-yloxy)ethyl)piperazin-1-yl)-1H-1,2,4-triazol-3-amine] is 4.00 to 5.00; for `CC(C)c1ccccc1OCCN1CCN(c2nc(N)n[nH]2)CC1` [Example 84, 5-(4-(2-(2-isopropylphenoxy)ethyl)piperazin-1-yl)-1H-1,2,4-triazol-3-amine] it is 4.00 to 5.00.
The figure for `Nc1n[nH]c(N2CCN(CCOc3ccccc3F)CC2)n1` [Example 85, 5-(4-(2-(2-fluorophenoxy)ethyl)piperazin-1-yl)-1H-1,2,4-triazol-3-amine] is 4.00 to 5.00; for `Nc1n[nH]c(N2CCN(CCOc3cccc(Cl)c3)CC2)n1` [Example 86, 5-(4-(2-(3-chlorophenoxy)ethyl)piperazin-1-yl)-1H-1,2,4-triazol-3-amine] it is 4.00 to 5.00.
Then `Cc1cccc(Cl)c1OCCN1CCN(c2nc(N)n[nH]2)CC1` [Example 87, 5-(4-(2-(2-chloro-6-methylphenoxy)ethyl)piperazin-1-yl)-1H-1,2,4-triazol-3-amine], with 4.00 to 5.00; and `Nc1n[nH]c(N2CCC(NCCc3ccc(Cl)cc3)CC2)n1` [Example 88, 1-(3-amino-1H-1,2,4-triazol-5-yl)-N-(4-chlorophenethyl)piperidin-4-amine], with 5.00 to 6.00.
For `C[C@H](CN1CCN(c2nc(N)n[nH]2)CC1)Oc1ccc(Br)cc1` [Example 90, (R)-5-(4-(2-(4-bromophenoxy)propyl)piperazin-1-yl)-1H-1,2,4-triazol-3-amine], the pIC50 is 6.00 to 7.00.
On to `CN(Cc1ccc(Cl)cc1)C(=O)C1(C)CCN(c2nc(N)n[nH]2)CC1` [Example 91, 1-(3-amino-1H-1,2,4-triazol-5-yl)-N-(4-chlorobenzyl)-N,4-dimethyl piperidine-4-carboxamide], for which the negative logarithm of the IC50 (pIC50) is less than 4.00.
Then `CC(C)(C)CCN(CCc1ccc(Cl)cc1)C1CCN(c2nc(N)n[nH]2)CC1` [Example 93, 1-(3-amino-1H-1,2,4-triazol-5-yl)-N-(4-chlorophenethyl)-N-(3,3-dimethylbutyl) piperidin-4-amine], with more than 7.00.
Turning to `CC(C)(C)CN(CCc1ccc(Cl)cc1)C1CCN(c2nc(N)n[nH]2)CC1` [Example 94, 1-(3-amino-1H-1,2,4-triazol-5-yl)-N-(4-chlorophenethyl)-N-neopentyl-piperidin-4-amine dihydrochloride], the pIC50 is more than 7.00.
With `Nc1n[nH]c(N2CCC(N(CCc3ccc(Br)cc3)Cc3ccccc3Cl)CC2)n1` [Example 98, 1-(3-amino-1H-1,2,4-triazol-5-yl)-N-(4-bromophenethyl)-N-(2-chlorobenzyl) piperidin-4-amine], the pIC50 is more than 7.00.
Then `Nc1n[nH]c(N2CCC(N(CCc3ccc(Cl)cc3)Cc3cccc(CO)c3)CC2)n1` [Example 100, (3-(((1-(3-amino-1H-1,2,4-triazol-5-yl)piperidin-4-yl)(4-chlorophenethyl)amino)methyl)phenyl)methanol], with more than 7.00; and `Cc1ccc(CN(CCc2ccc(Cl)cc2)C2CCN(c3nc(N)n[nH]3)CC2)cc1` [Example 102, 1-(3-amino-1H-1,2,4-triazol-5-yl)-N-(4-chlorophenethyl)-N-(4-methylbenzyl) piperidin-4-amine], with more than 7.00.
The figure for `C[C@@H](c1ccccc1)N(CCc1ccc(Cl)cc1)C1CCN(c2nc(N)n[nH]2)CC1` [Example 103, (S)-1-(3-amino-1H-1,2,4-triazol-5-yl)-N-(4-chlorophenethyl)-N-(1-phenylethyl) piperidin-4-amine] is 6.00 to 7.00; for `Nc1n[nH]c(N2CCC(N(CCc3ccc(Cl)cc3)Cc3ccc(C(F)(F)F)cc3)CC2)n1` [Example 104, 1-(3-amino-1H-1,2,4-triazol-5-yl)-N-(4-chlorophenethyl)-N-(4-(trifluoromethyl)benzyl)piperidin-4-amine] it is more than 7.00; for `Nc1n[nH]c(N2CCC(N(CCc3ccc(Br)cc3)Cc3cccc4ccncc34)CC2)n1` [Example 105, 1-(3-amino-1H-1,2,4-triazol-5-yl)-N-(4-bromophenethyl)-N-(isoquinolin-8-ylmethyl) piperidin-4-amine] it is more than 7.00.
Regarding `Nc1n[nH]c(N2CCC(N(CCc3ccc(Cl)cc3)[C@@H](CO)c3ccccc3)CC2)n1` [Example 107, (R)-2-((1-(3-amino-1H-1,2,4-triazol-5-yl)piperidin-4-yl)(4-chlorophenethyl)amino)-2-phenylethan-1-ol], the pIC50 was 6.00 to 7.00.
For `Nc1n[nH]c(N2CCC(N(CCc3ccc(Cl)cc3)Cc3ccncc3)CC2)n1` [Example 108, 1-(3-amino-1H-1,2,4-triazol-5-yl)-N-(4-chlorophenethyl)-N-(pyridin-4-ylmethyl) piperidin-4-amine], the negative-log IC50 (pIC50) was more than 7.00.
In the case of `COC[C@@H](c1ccccc1)N(CCc1ccc(Cl)cc1)C1CCN(c2nc(N)n[nH]2)CC1` [Example 109], the negative logarithm of the IC50 (pIC50) was 4.00 to 5.00.
On to `Nc1nc(N2CCC(N(CCc3ccc(Cl)cc3)Cc3cccc(Cl)c3)CC2)n[nH]1` [Example 110, 1-(3-amino-1H-1,2,4-triazol-5-yl)-N-(3-chlorobenzyl)-N-(4-chlorophenethyl) piperidin-4-amine dihydrochloride], for which the pIC50 was more than 7.00.
The figure for `Nc1n[nH]c(N2CCC(N(CCc3ccc(Cl)cc3)Cc3ccc(-c4ccccc4)cc3)CC2)n1` [Example 111, N-([1,1′-biphenyl]-4-ylmethyl)-1-(3-amino-1H-1,2,4-triazol-5-yl)-N-(4-chlorophenethyl) piperidin-4-amine] is more than 7.00; for `Nc1n[nH]c(N2CCC(N(CCc3ccc(Cl)cc3)Cc3ccc4ccccc4c3)CC2)n1` [Example 112, 1-(3-amino-1H-1,2,4-triazol-5-yl)-N-(4-chlorophenethyl)-N-(naphthalen-2-ylmethyl) piperidin-4-amine] it is more than 7.00.
As to `Nc1n[nH]c(N2CCC(N(CCc3ccc(Cl)cc3)Cc3ccccc3C(F)(F)F)CC2)n1` [Example 113, 1-(3-amino-1H-1,2,4-triazol-5-yl)-N-(4-chlorophenethyl)-N-(2-(trifluoromethyl)benzyl)piperidin-4-amine], the negative-log IC50 (pIC50) was more than 7.00.
For `Nc1n[nH]c(N2CCC(N(CCc3ccc(Cl)cc3)Cc3ccccc3-c3ccccc3)CC2)n1` [Example 114, N-([1,1′-biphenyl]-2-ylmethyl)-1-(3-amino-1H-1,2,4-triazol-5-yl)-N-(4-chlorophenethyl) piperidin-4-amine], the pIC50 is more than 7.00.
Then `Nc1n[nH]c(N2CCC(N(CCc3ccc(Cl)cc3)Cc3ccc(-c4ccn[nH]4)cc3)CC2)n1` [Example 115, N-(4-(1H-pyrazol-5-yl)benzyl)-1-(3-amino-1H-1,2,4-triazol-5-yl)-N-(4-chlorophenethyl) piperidin-4-amine dihydrochloride], with more than 7.00.
Then `Nc1n[nH]c(N2CCC(N(CCc3ccc(Cl)cc3)Cc3cnc4ccccc4n3)CC2)n1` [Example 116, 1-(3-amino-1H-1,2,4-triazol-5-yl)-N-(4-chlorophenethyl)-N-(quinoxalin-2-ylmethyl) piperidin-4-amine dihydrochloride], with 6.00 to 7.00.
The figure for `C[C@H](c1ccccc1)N(CCc1ccc(Cl)cc1)C1CCN(c2nc(N)n[nH]2)CC1` [Example 118, (R)-1-(3-amino-1H-1,2,4-triazol-5-yl)-N-(4-chlorophenethyl)-N-(1-phenylethyl)piperidin-4-amine] is more than 7.00; for `Nc1n[nH]c(N2CCC(N(CCc3ccc(Cl)cc3)Cc3ccncc3F)CC2)n1` [Example 119, 1-(3-amino-1H-1,2,4-triazol-5-yl)-N-(4-chlorophenethyl)-N-((3-fluoropyridin-4-yl)methyl)piperidin-4-amine] it is more than 7.00.
As to `Nc1n[nH]c(N2CCC(N(CCc3ccc(Cl)cc3)Cc3ccc(F)cc3)CC2)n1` [Example 123, 1-(3-amino-1H-1,2,4-triazol-5-yl)-N-(4-chlorophenethyl)-N-(4-fluorobenzyl)piperidin-4-amine], the pIC50 was more than 7.00.
Then `Cc1ccccc1CN(CCc1ccc(Cl)cc1)C1CCN(c2nc(N)n[nH]2)CC1` [Example 125, 1-(3-amino-1H-1,2,4-triazol-5-yl)-N-(4-chlorophenethyl)-N-(2-methylbenzyl)piperidin-4-amine], with more than 7.00; and `Nc1n[nH]c(N2CCC(N(CCc3ccc(Cl)cc3)Cc3ccc(Cl)c(C(F)(F)F)c3)CC2)n1` [Example 126, 1-(3-amino-1H-1,2,4-triazol-5-yl)-N-(4-chloro-3-(trifluoromethyl)benzyl)-N-(4-chlorophenethyl)piperidin-4-amine], with more than 7.00; and `Nc1n[nH]c(N2CCC(N(CCc3ccc(Cl)cc3)Cc3ccccc3Br)CC2)n1` [Example 127, 1-(3-amino-1H-1,2,4-triazol-5-yl)-N-(2-bromobenzyl)-N-(4-chlorophenethyl)piperidin-4-amine], with more than 7.00.
Then `Nc1n[nH]c(N2CCC(N(CCc3ccc(Br)cc3)Cc3cccc4ccccc34)CC2)n1` [Example 129, 1-(3-amino-1H-1,2,4-triazol-5-yl)-N-(4-bromophenethyl)-N-(naphthalen-1-ylmethyl)piperidin-4-amine], with more than 7.00.

A word on the pIC50: it is the negative decadic logarithm of the IC50, by convention in mol/L.
